Counter-ions that a name gives are not always drawn.
Row | Compound | melting point
1 | CCOC(=O)c1cc(N)n(-c2cc(C(=O)Nc3cc(C(C)(C)C)cc(NS(C)(=O)=O)c3OC)ccc2C)n1 (as salt: TFA) [Example 1, 5-amino-1-[5-(5-tert-butyl-3-methanesulfonylamino-2-methoxy-phenylcarbamoyl)-2-methyl-phenyl]-1H-pyrazole-3-carboxylic acid ethyl ester] | 104 to 111 °C (dec.)
2 | CCOC(=O)c1cnn(-c2cc(C(=O)Nc3cc(C(C)(C)C)cc(NS(C)(=O)=O)c3OC)ccc2C)c1 [Example 2, 1-[5-(5-tert-butyl-3-methanesulfonylamino-2-methoxy-phenylcarbamoyl)-2-methyl-phenyl]-1H-pyrazole-4-carboxylic acid ethyl ester] | 125 to 130 °C
3 | COc1c(NC(=O)c2ccc(C)c(-n3cc(C(=O)NCc4cccnc4)cn3)c2)cc(C(C)(C)C)cc1NS(C)(=O)=O [Example 4, 1-[5-(5-tert-Butyl-3-methanesulfonylamino-2-methoxy-phenylcarbamoyl)-2-methyl-phenyl]-1H-pyrazole-4-carboxylic acid (pyridin-3-ylmethyl)-amide] | 127 to 133 °C

— patent publication US7485657B2, “Anti-cytokine heterocyclic compounds” (Boehringer Ingelheim Pharmaceuticals, Inc., priority 2004, dated 2009)
